Experimental data: the supplement of paper PMC10307832

How the values were obtained:
Experiment in all cases: relative viability (nuclei count vs DMSO), 5 days (fraction); higher = more cells survive
NCI-H2087 = test system: NCI-H2087
Outline: (§1)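 Lung cancer cell lines were seeded in 1536-well plates and dosed by pin tool the next day, with either a single drug or a fixed anchor-drug dose combined with five library-drug doses (not always all listed) spaced in √10 steps. Five days later, one step fixed the cells and stained their nuclei (final 0.05% Triton X-100, 1% formaldehyde, 1 ug/ml Hoechst), and nuclei were counted on 4× images. Relative viability is the nuclei count in treated wells divided by the count in vehicle wells, and each value is the median of duplicate plates.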

HOP-62 = test system: HOP-62
Outline: as §1

LC-2-ad = test system: LC-2-ad
Outline: as §1

NCI-H1651 = test system: NCI-H1651
Outline: as §1

NCI-H2342 = test system: NCI-H2342
Outline: as §1

ChaGo-K-1 = test system: ChaGo-K-1
Outline: as §1

COR-L23 = test system: COR-L23
Outline: as §1

NCI-H2126 = test system: NCI-H2126
Outline: as §1

PC-3 [JPC-3] = test system: PC-3 [JPC-3]
Outline: as §1

NCI-H1355 = test system: NCI-H1355
Outline: as §1

CAL-12T = test system: CAL-12T
Outline: as §1

Q: Which results are given for `C=C1C(=O)O[C@@H](CCCCCCCC)[C@@H]1C(=O)O` [C-75] + Nc1nc2[nH]cc(CCc3ccc(C(=O)N[C@@H](CCC(=O)O)C(=O)O)cc3)c2c(=O)[nH]1 [Pemetrexed] (partner 0.2 µM)?
A: relative viability (NCI-H2087; first compound 2.53 µM): 0.647; relative viability (NCI-H2087; first compound 8 µM): 0.574; relative viability (HOP-62; first compound 0.08 µM): 0.365; relative viability (HOP-62; first compound 0.253 µM): 0.306; relative viability (HOP-62; first compound 0.8 µM): 0.291; relative viability (HOP-62; first compound 2.53 µM): 0.268; relative viability (HOP-62; first compound 8 µM): 0.311; relative viability (LC-2-ad; first compound 0.08 µM): 0.283; relative viability (LC-2-ad; first compound 0.253 µM): 0.265; relative viability (LC-2-ad; first compound 0.8 µM): 0.285; relative viability (LC-2-ad; first compound 2.53 µM): 0.279; relative viability (LC-2-ad; first compound 8 µM): 0.271; relative viability (NCI-H1651; first compound 0.08 µM): 0.568; relative viability (NCI-H1651; first compound 0.253 µM): 0.671; relative viability (NCI-H1651; first compound 0.8 µM): 0.541; relative viability (NCI-H1651; first compound 2.53 µM): 0.53; relative viability (NCI-H1651; first compound 8 µM): 0.606; relative viability (NCI-H2342; first compound 0.08 µM): 0.815; relative viability (NCI-H2342; first compound 0.253 µM): 0.771; relative viability (NCI-H2342; first compound 0.8 µM): 0.693; relative viability (NCI-H2342; first compound 2.53 µM): 0.62; relative viability (NCI-H2342; first compound 8 µM): 0.766; relative viability (ChaGo-K-1; first compound 0.08 µM): 0.265; relative viability (ChaGo-K-1; first compound 0.253 µM): 0.259; relative viability (ChaGo-K-1; first compound 0.8 µM): 0.239; relative viability (ChaGo-K-1; first compound 2.53 µM): 0.243; relative viability (ChaGo-K-1; first compound 8 µM): 0.254; relative viability (COR-L23; first compound 0.08 µM): 0.197; relative viability (COR-L23; first compound 0.253 µM): 0.197; relative viability (COR-L23; first compound 0.8 µM): 0.2; relative viability (COR-L23; first compound 2.53 µM): 0.2; relative viability (COR-L23; first compound 8 µM): 0.198; relative viability (NCI-H2126; first compound 0.08 µM): 0.727; relative viability (NCI-H2126; first compound 0.253 µM): 0.681; relative viability (NCI-H2126; first compound 0.8 µM): 0.725; relative viability (NCI-H2126; first compound 2.53 µM): 0.622; relative viability (NCI-H2126; first compound 8 µM): 0.673; relative viability (PC-3 [JPC-3]; first compound 0.08 µM): 1.07; relative viability (PC-3 [JPC-3]; first compound 0.253 µM): 0.979; relative viability (PC-3 [JPC-3]; first compound 0.8 µM): 0.81; relative viability (PC-3 [JPC-3]; first compound 2.53 µM): 0.874; relative viability (PC-3 [JPC-3]; first compound 8 µM): 1.14; relative viability (NCI-H1355; first compound 0.08 µM): 1.01; relative viability (NCI-H1355; first compound 0.253 µM): 1.04; relative viability (NCI-H1355; first compound 0.8 µM): 1.05; relative viability (NCI-H1355; first compound 2.53 µM): 1.02; relative viability (NCI-H1355; first compound 8 µM): 0.974; relative viability (CAL-12T; first compound 0.08 µM): 1.37; relative viability (CAL-12T; first compound 0.253 µM): 1.45; relative viability (CAL-12T; first compound 0.8 µM): 1.11; relative viability (CAL-12T; first compound 2.53 µM): 1.05; relative viability (CAL-12T; first compound 8 µM): 1.27
